From publication PMC6274503, “Chemical Constituents of Muehlenbeckia tamnifolia (Kunth) Meisn (Polygonaceae) and Its In Vitro α-Amilase and α-Glucosidase Inhibitory Activities” (Molecules, 2016) come the findings set out here.

Where two headings read alike, the source gives them in different places.

In experiment [1] the target is T1, α-amylase from porcine pancreas (Sus scrofa, UniProt P00690).
T1 sequence (P00690 16-511): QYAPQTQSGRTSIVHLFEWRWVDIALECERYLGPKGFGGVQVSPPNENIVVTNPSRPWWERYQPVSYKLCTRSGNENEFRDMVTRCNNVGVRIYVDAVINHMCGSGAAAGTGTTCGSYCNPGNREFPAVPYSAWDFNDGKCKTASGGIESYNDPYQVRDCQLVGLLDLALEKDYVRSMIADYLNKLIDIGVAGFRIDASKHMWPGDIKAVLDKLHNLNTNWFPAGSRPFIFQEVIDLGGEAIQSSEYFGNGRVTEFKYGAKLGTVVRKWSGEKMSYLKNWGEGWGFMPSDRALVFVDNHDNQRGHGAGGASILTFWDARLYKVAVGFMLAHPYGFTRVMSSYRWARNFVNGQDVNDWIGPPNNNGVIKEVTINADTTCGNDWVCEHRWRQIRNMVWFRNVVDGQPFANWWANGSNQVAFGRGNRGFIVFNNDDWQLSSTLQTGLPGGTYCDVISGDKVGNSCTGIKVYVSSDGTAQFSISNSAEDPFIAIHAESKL
Briefly: α-amylase inhibitory activity (starch-iodine method). The class given is biochemical.
Description: (§1) The α-amylase and α-glucosidase assays were evaluated using α-amylase from porcine pancreas (Type IV-B, Sigma A3176, St. Louis, MO, USA) and α-glucosidase from Saccharomyces cerevisiae (Tipe I, Sigma G5003, St. Louis, MO, USA). Starch was used as substrate for α-amylase and p-Nitrophenyl-α-D-glucopiranoside (p-NPG-Sigma, N1377) was used as substrate for α-glucosidase. For both enzymatic tests, a microplate reader (EPOCH 2, Biotek Instruments Inc. Winoosky, VT, USA) was used.
The inhibitory activity is measured according to the method reported by Xiao et al. [30] with slight modifications. […] Starch solution was prepared by dissolving 1 g in 50 mL of 0.4 M NaOH and heated for 5 min at 100 °C. After cooling in iced water, the solution pH was adjusted to 7 with 2 M HCl and H2O was added to complete 100 mL. Sample solutions were prepared by dissolving 10 mg in 1 mL MeOH:H2O (50:50). Several dilutions in PBS (SIGMA-P4417) were made in case of getting complete enzyme inhibition. PBS solution (35 μL), substrate (35 μL) and sample (5 μL) solutions were mixed in a 96-well microtiter plate, and the mixture was pre-incubated at 37 °C for 1 min. Then, 20 μL of a 50 μg/mL α-amylase solution was added to each well. The plate was incubated for 15 min. […] The absorbance was measured in a microplate reader (EPOCH 2, Biotek Instruments Inc. Winoosky, VT, USA) at 580 nm. Inhibitory activity (%) was calculated according to the formula described by Kusano et al. [31] as follows: (1) Inhibition (%)=[1−(ABS2−ABS1)/(ABS4−ABS3)×100] where ABS1 is the absorbance of the incubated solution containing sample, starch and amylase, ABS2 is the absorbance of incubated solution containing sample and starch, ABS3 is the absorbance of incubated solution containing starch and amylase, and ABS4 is the absorbance of incubated solution containing starch. IC50 value was calculated by curve fitting of data (GraphPad Prism 5.0, GraphPad Software, Inc., La Jolla, CA, USA).

Experiment [2] has as its target α-glucosidase from Saccharomyces cerevisiae. The experiment is described as follows: α-glucosidase inhibition assay (p-NPG substrate, pNP release over 60 min). Particulars: for IC50: compounds and acarbose, max concentration tested 1 mM, '-' = no inhibitory activity at maximum dose tested. Type of experiment: biochemical.
Description: as §1
α-Glucosidase inhibitory activity was determined using a 96-well microtiter plate with p-nitrophenyl-α-D-glucopyranoside as the substrate, according to the method describe by Tao et al. [32], with slight modifications. Sample solutions were prepared by dissolving 10 mg in 1 mL MeOH:H2O (50:50). Several dilutions in PBS were made in case of getting complete enzyme inhibition. First, 75 μL of PBS (SIGMA-P4417) was mixed with 5 μL of the sample and 20 μL of the enzyme solution (0.15 U/mL in PBS pH 7.4), then it was pre-incubated at 37 °C for 5 min prior to the initiation of the reaction by adding the substrate. After pre-incubation, 20 μL of PNPG (5 mM in phosphate buffer, pH 7.4) was added and then incubated at 37 °C. […] The results were expressed as inhibition percentage by means of the formula described by Choi et al. [33] as follows: (2) Inhibition (%)=[(Ao−As)/Ao]×100 where A0 is the absorbance recorded for the enzymatic activity without inhibitor (control), and As is the absorbance recorded for the enzymatic activity in presence of the inhibitor (sample). IC50 value was calculated by curve fitting of data (GraphPad Prism 5.0).
[3] abbreviates: compounds and acarbose; max concentration tested 1 mM; '-' = inactive at maximum dose tested (<35% inhibition); read-out: IC50 α-amylase.
Setting [4] is: read-out: IC50 α-amylase; compounds and acarbose; max concentration tested 1 mM; '-' = inactive at maximum dose tested (<35% inhibition).

For the molecule `C=C(C)[C@@H]1CC[C@]2(C)CC[C@]3(C)[C@H](CC[C@@H]4[C@@]5(C)CC[C@H](O)C(C)(C)[C@@H]5CC[C@]43C)[C@@H]12` [Compound 3, Lupeol], the IC50 (in general, the midpoint of a concentration-inhibition curve) in experiment [1] (setting [3]) is over 62.5 µM; in experiment [2], over 41.7 µM.

As for `C[C@@H]1O[C@@H](Oc2c(-c3ccc(O)c(O)c3)oc3cc(O)cc(O)c3c2=O)[C@H](O)[C@H](O)[C@H]1O` [Compound 9, Quercitrin], the figures for the IC50 in experiment [1] (setting [4]) and in experiment [2] were over 62.5 µM and 7.77 µM, respectively.

For the molecule `C=C(C)[C@@H]1CC[C@]2(C)CC[C@]3(C)[C@H](CC[C@@H]4[C@@]5(C)CC[C@H](OC(C)=O)C(C)(C)[C@@H]5CC[C@]43C)[C@@H]12` [Compound 1, Lupeol acetate], the IC50 in experiment [1] (setting [3]) was over 62.5 µM; in experiment [2], over 41.7 µM.

As to `CC[C@H](CC[C@@H](C)[C@H]1CC[C@H]2[C@@H]3CC=C4C[C@@H](O)CC[C@]4(C)[C@H]3CC[C@]12C)C(C)C` [Compound 4, β-Sitosterol], the IC50 in experiment [1] (setting [3]) was over 62.5 µM; in experiment [2], over 41.7 µM.

With `CCCCC/C=C\C/C=C\CCCCCCCC(=O)O` [Compound 6, Linoleic acid], the IC50 in experiment [1] (setting [3]) was over 62.5 µM; in experiment [2], 0.42 µM.

Turning to `O=C(O)/C=C/c1ccc(O)cc1` [Compound 5, Trans-p-coumaric acid], the IC50 in experiment [1] (setting [4]) is over 62.5 µM; in experiment [2] it was over 41.7 µM. Besides, in experiment [2] (at the maximum dose tested (1 mM for compounds)), the “enzyme inhibition (α-glucosidase)” value turned out to be 27%.

On to `Oc1cc(O)c2c(c1)O[C@H](c1ccc(O)c(O)c1)[C@@H](O)C2` [Compound 7, (+)-Catechin], for which the IC50 was over 62.5 µM in experiment [1] (setting [3]) and 5.5 µM in experiment [2].

Consider `O=C(O)/C=C\c1ccc(O)cc1` [Compound 2, Cis-p-coumaric acid], for which the IC50 in experiment [1] (setting [4]) is over 62.5 µM; in experiment [2] it was over 41.7 µM.
